In US6403607B1, “Sulfonamide derivatives and drugs containing the same as the active ingredient” (priority 1998, dated 2002):
Each block holds one molecule with its values, some of them ahead of it.

Columns and labels:
[1] = tested on: ethanol ulcer in the gland gastric region; experiment: Ethanol ulcer; format: in vivo; conditions: rats fasted 24 hours, drug oral, 99.5% ethanol 1 ml/rat after one hour, size of ulcer one hour later; for Suppression: dose not given
Method: Ethanol Ulcer Rats were fasted for 24 hours and orally administered with a drug. After one hour, 99.5% ethanol (1 ml/rat) was fed through oral administration. After one hour of ethanol administration, the abdomens of the rats were dissected and the size of ulcer in the gland gastric region was measured for each rat.

[2] = tested on: HCl-ethanol ulcer in the gland gastric region; experiment: HCl-ethanol ulcer; format: in vivo, Rats; conditions: rats fasted 24 hours, drug oral, 60% ethanol containing 0.15 N hydrochloric acid 1 ml/rat after one hour, size of ulcer one hour later; dose not given
Method: HCl-ethanol Ulcer Rats were fasted for 24 hours and orally administered with a drug. After one hour, 60% ethanol containing 0.15 N hydrochloric acid (1 ml/rat) was perorally administered to each rat. One hour after ethanol administration, the size of ulcer in the gland gastric region was measured for evaluation of anti-ulcer effects of the drug.

Helicobacter pylori = experiment: Anti-Helicobacter-pylori action (agar plate dilution MIC); format: cell-based; conditions: clinically isolated 10 bacterial strains, agar plate dilution method
Method: Anti-Helicobacter-pylori Action
Using clinically isolated 10 bacterial strains, the minimum inhibitory concentration (MIC) was measured according to the agar plate dilution method.

rat red blood cell = experiment: Hemolytic action; format: cell-based; conditions: 10% rat red blood cell stock, 1% DMSO containing saline, 30 minutes at 37° C., absorbance 540 nm
Method: Hemolytic Action […] After incubation for 30 minutes at, 37° C., the mixture was centrifugally separated and the supernatant was obtained. The absorbance (540 nm) of the supernatant was measured. The hemolysis ratio was calculated.

H/K-ATPase = H/K-ATPase (Oryctolagus cuniculus, UniProt P27112); experiment: H/K-ATPase inhibition; format: biochemical; conditions: pH 7.4, H/K-ATPase from rabbit gastric mucous membrane
H/K-ATPase, sequence (P27112 whole entry): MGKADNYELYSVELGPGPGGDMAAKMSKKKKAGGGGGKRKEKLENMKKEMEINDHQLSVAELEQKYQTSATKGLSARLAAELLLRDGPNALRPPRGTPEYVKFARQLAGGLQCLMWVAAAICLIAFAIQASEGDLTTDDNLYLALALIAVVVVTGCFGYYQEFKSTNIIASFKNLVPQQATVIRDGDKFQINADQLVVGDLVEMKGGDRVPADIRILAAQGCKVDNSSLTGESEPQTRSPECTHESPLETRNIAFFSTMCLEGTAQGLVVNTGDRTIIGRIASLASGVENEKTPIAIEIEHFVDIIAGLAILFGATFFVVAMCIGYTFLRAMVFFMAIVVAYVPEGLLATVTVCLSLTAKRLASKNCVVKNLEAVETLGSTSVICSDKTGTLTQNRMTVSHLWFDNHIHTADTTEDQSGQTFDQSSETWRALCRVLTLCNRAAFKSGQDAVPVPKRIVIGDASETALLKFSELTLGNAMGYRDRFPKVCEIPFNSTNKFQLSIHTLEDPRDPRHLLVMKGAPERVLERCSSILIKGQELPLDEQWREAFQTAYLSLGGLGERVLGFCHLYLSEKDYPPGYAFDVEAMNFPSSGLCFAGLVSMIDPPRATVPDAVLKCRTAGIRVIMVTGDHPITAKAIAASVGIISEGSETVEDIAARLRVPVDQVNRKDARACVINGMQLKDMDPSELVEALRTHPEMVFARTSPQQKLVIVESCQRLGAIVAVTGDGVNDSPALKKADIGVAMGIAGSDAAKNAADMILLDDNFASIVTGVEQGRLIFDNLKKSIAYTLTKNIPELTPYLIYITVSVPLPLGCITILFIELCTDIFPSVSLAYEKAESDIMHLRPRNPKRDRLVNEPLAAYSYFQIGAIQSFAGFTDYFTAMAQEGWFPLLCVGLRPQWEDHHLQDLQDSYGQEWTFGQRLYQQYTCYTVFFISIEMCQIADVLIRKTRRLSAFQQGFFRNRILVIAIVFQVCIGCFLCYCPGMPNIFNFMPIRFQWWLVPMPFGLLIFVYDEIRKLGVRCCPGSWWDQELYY
H/K-ATPase, sequence (P18597 whole entry partner): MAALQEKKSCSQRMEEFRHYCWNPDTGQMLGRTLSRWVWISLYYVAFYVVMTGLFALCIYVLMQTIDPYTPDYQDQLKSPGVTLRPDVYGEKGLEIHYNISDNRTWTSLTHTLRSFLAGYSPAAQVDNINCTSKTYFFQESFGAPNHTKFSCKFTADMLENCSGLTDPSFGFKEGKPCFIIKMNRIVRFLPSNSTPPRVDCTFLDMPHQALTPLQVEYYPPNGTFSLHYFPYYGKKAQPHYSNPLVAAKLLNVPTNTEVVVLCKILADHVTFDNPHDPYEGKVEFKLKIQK
Method: H/K-ATPase Inhibition The inhibitory effect was measured under pH 7.4, by using H/K-ATPase isolated and purified from the rabbit gastric mucous membrane.

MIC (Helicobacter pylori): 0.78 to 3.13 µg/mL
Structure (SMILES): CN(C)CCN(c1ccccc1NCCOc1ccc(Cl)cc1)S(=O)(=O)c1ccc(Cl)cc1.CN(C)CCN(c1ccccc1NCCOc1ccc(Cl)cc1)S(=O)(=O)c1ccc(Cl)cc1.O=C(O)C(O)C(O)C(=O)O [Example 3, N-(4-Chlorobenzenesulfonyl)-N-(2-dimethylaminoethyl)-N′-[2-(4-chlorophenoxy)ethyl]-o-phenylenediamine ½ Tartaric Acid Salt]
ED50 [1]: 14 mg/kg | Suppression [1]: 88% | Suppression [2]: 91% | HC50 (rat red blood cell): 72.3 µg/mL

IC50 (H/K-ATPase): 230 µM
Structure (SMILES): CCS(=O)(=O)N(CCOCCN)c1ccccc1NCCOc1ccc(Cl)cc1 [Example 23, N-[2-(2-Amino)ethoxyethyl]-N-(1-ethanesulfonyl)-N′-[2-(4-chlorophenoxy)ethyl]-o-phenylenediamine]
Suppression [1]: 98%

IC50 (H/K-ATPase): 38 µM
Structure (SMILES): CCCCCS(=O)(=O)N(CCOCCN)c1ccccc1NCCOc1ccc(Cl)cc1 [Example 27, N-[2-(2-Amino)ethoxyethyl]-N-(1-pentanesulfonyl)-N′-[2-(4-chlorophenoxy)ethyl]-o-phenylenediamine]

IC50 (H/K-ATPase): 79 µM
Structure (SMILES): CCCCCCS(=O)(=O)N(CCOCCN)c1ccccc1NCCOc1ccc(Cl)cc1 [Example 28, N-[2-(2-Amino)ethoxyethyl]-N-(1-hexanesulfonyl)-N′-[2-(4-chlorophenoxy)ethyl]-o-phenylenediamine]
Suppression [1]: 100%

IC50 (H/K-ATPase): 5 µM
Structure (SMILES): CCCCCCCS(=O)(=O)N(CCOCCN)c1ccccc1NCCOc1ccc(Cl)cc1 [Example 29, N-[2-(2-Amino)ethoxyethyl]-N-(1-heptanesulfonyl)-N′-[2-(4-chlorophenoxy)ethyl]-o-phenylenediamine]

Structure (SMILES): CCS(=O)(=O)N(CCN(C)C)c1ccccc1NCCOc1ccc(Cl)cc1.Cl [Example 30, N-[2-(Dimethylamino)ethyl]-N-ethanesulfonyl-N′-[2-(4-chlorophenoxy)ethyl]-o-phenylenediamine Hydrochloride]
HC50 (rat red blood cell): >100 µg/mL

Structure (SMILES): CCCCCCS(=O)(=O)N(CCN(C)C)c1ccccc1NCCOc1ccc(Cl)cc1.Cl [Example 32, N-[2-(Dimethylamino)ethyl]-N-(1-hexanesulfonyl)-N′-[2-(4-chlorophenoxy)ethyl]-o-phenylenediamine Hydrochloride]
Suppression [2]: 88% | HC50 (rat red blood cell): >100 µg/mL

Structure (SMILES): COc1ccc(S(=O)(=O)N(CCN(C)C)c2ccccc2NCCOc2ccc(Cl)cc2)cc1.Cl [Example 40, N-[2-(Dimethylamino)ethyl]-N-(4-methoxybenzenesulfonyl)-N′-[2-(4-chlorophenoxy)ethyl]-o-phenylenediamine Hydrochloride]
Suppression [2]: 88% | HC50 (rat red blood cell): >100 µg/mL

Structure (SMILES): CN(C)CCN(c1ccccc1NCCOc1ccc(Cl)cc1)S(=O)(=O)c1ccc(F)cc1.Cl [Example 42, N-[2-(Dimethylamino)ethyl]-N-(4-fluorobenzenesulfonyl)-N′-[2-(4-chlorophenoxy)ethyl]-o-phenylenediamine Hydrochloride]
Suppression [2]: 91% | HC50 (rat red blood cell): >100 µg/mL

Structure (SMILES): CN(C)CCN(c1ccccc1NCCOc1ccccc1)S(=O)(=O)c1ccc(Cl)cc1.Cl [Example 50, N-[2-(Dimethylamino)ethyl]-N-(4-chlorobenzenesulfonyl)-N′-(2-phenoxyethyl)-o-phenylenediamine Hydrochloride]
Suppression [2]: 81% | HC50 (rat red blood cell): >100 µg/mL

Structure (SMILES): CN(C)CCN(c1ccccc1NCCOc1ccc(Cl)cc1)S(=O)(=O)c1ccccc1Cl.Cl [Example 51, N-[2-(Dimethylamino)ethyl]-N-(2-chlorobenzenesulfonyl)-N′-[2-(4-chlorophenoxy)ethyl]-o-phenylenediamine Hydrochloride]
Suppression [2]: 83% | HC50 (rat red blood cell): 84.6 µg/mL

Structure (SMILES): CN(C)CCN(c1cccc(NCCOc2ccc(Cl)cc2)c1)S(=O)(=O)c1ccc(Cl)cc1.Cl [Example 55, N-[2-(Dimethylamino)ethyl]-N-(4-chlorobenzenesulfonyl)-N′-[2-(4-chlorophenoxy)ethyl]-m-phenylenediamine Hydrochloride]
Suppression [2]: 88%

Structure (SMILES): CN(C)CCN(c1ccc(NCCOc2ccc(Cl)cc2)cc1)S(=O)(=O)c1ccccc1Cl.Cl [Example 56, N-[2-(Dimethylamino)ethyl]-N-(2-chlorobenzenesulfonyl)-N′-[2-(4-chlorophenoxy)ethyl]-p-phenylenediamine Hydrochloride]
Suppression [2]: 88%

Structure (SMILES): CN(C)CCN(c1ccccc1NCCOc1ccc(Cl)cc1)S(=O)(=O)c1cccc2cnccc12.Cl [Example 57, N-[2-(Dimethylamino)ethyl]-N-(5-isoquinolinesulfonyl)-N′-[2-(4-chlorophenoxy)ethyl]-o-phenylenediamine Hydrochloride]
HC50 (rat red blood cell): >100 µg/mL

Structure (SMILES): CN(C)CCN(c1ccccc1NCCOc1cccc(Cl)c1)S(=O)(=O)c1ccc(Cl)cc1.Cl [Example 58, N-[2-(Dimethylamino)ethyl]-N-(4-chlorobenzenesulfonyl)-N′-[2-(3-chlorophenoxy)ethyl]-o-phenylenediamine Hydrochloride]
Suppression [2]: 88% | HC50 (rat red blood cell): 71.2 µg/mL

Structure (SMILES): CN(C)CCN(c1ccccc1N(C)CCOc1ccc(Cl)cc1)S(=O)(=O)c1ccc(Cl)cc1.Cl [Example 69]
Suppression [2]: 99%

Structure (SMILES): CN(C)CCN(c1ccccc1N(CCOc1ccc(Cl)cc1)Cc1ccccc1)S(=O)(=O)c1ccc(Cl)cc1.Cl [Example 71, N-[2-(Dimethylamino)ethyl]-N-(4-chlorobenzenesulfonyl)-N′-benzyl-N′-[2-(4-chlorophenoxy)ethyl]-o-phenylenediamine Hydrochloride]
Suppression [2]: 99%

Structure (SMILES): CN(C)CCN(c1ccccc1N1CCOCC1)S(=O)(=O)c1ccc(Cl)cc1.Cl [Example 128, 2-(4-Morpholino)-1-[N-[2-(dimethylamino)ethyl]-N-(4-chlorobenzenesulfonyl)]aminobenzene Hydrochloride Salt]
HC50 (rat red blood cell): >100 µg/mL

Structure (SMILES): CN(C)CCN(c1ccccc1N1CCNCC1)S(=O)(=O)c1ccc(Cl)cc1.Cl [Example 129, 2-(1-Piperazino)-1-[N-[2-(dimethylamino)ethyl]-N-(4-chlorobenzenesulfonyl)]aminobenzene Hydrochloride Salt]
HC50 (rat red blood cell): >100 µg/mL

MIC (Helicobacter pylori): 3.13 to 12.5 µg/mL
Structure (SMILES): CN(C)CCN(c1ccccc1N1CCN(c2ccc(Cl)cc2)CC1)S(=O)(=O)c1ccc(Cl)cc1 [Example 132, 2-[4-(4-Chlorophenyl)-1-piperazino]-1-[N-[2-(dimethylamino)ethyl]-N-(4-chlorobenzenesulfonyl)]aminobenzene]
Suppression [2]: 88%

Structure (SMILES): CN(C)CCN(c1ccccc1N1CCCN(c2ccc(Cl)cc2)CC1)S(=O)(=O)c1ccc(Cl)cc1.Cl [Example 135, 2-[4-(4-Chlorophenyl)-1-homopiperazino]-1-[N-[2-(dimethylamino)ethyl]-N-(4-chlorobenzenesulfonyl)]aminobenzene.HCl]
Suppression [2]: 89%

Structure (SMILES): CN(C)CCN(c1ccccc1Sc1ccc(Cl)cc1)S(=O)(=O)c1ccc(Cl)cc1.Cl [Example 142, 2-(4-Chlorophenylthio)-N-(4-chlorobenzenesulfonyl)-N-(2-dimethylaminoethyl)aniline.HCl]
Suppression [2]: 98%

Structure (SMILES): CN(C)CCN(c1ccccc1Oc1ccc(Cl)cc1)S(=O)(=O)c1ccc(Cl)cc1.Cl [Example 145, 1-[N-[2-(Dimethylamino)ethyl]-N-(4-chlorobenzenesulfonyl)]-2-(4-chlorophenoxy)aniline.HCl]
HC50 (rat red blood cell): >100 µg/mL
